The test system of this assay is human primary T-cells, IL-2 stimulated proliferation (JAK-1 and JAK-3 dependent; reported as JAK3 activity). The assay can be described thus: Human primary T-cell proliferation stimulated by IL-2 (Example 3). In kind it is cell-based. As to conditions: tested under conditions described in Example 3 (IL-2 stimulated human primary T-cell proliferation), read-out: ability to inhibit JAK3 activity, IC50 range (Table V). In outline: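 Peripheral-blood human T-cells pre-activated via TCR/CD28, IL-2-starved overnight, then cultured 72 h at 37 °C with compound in Yssel's medium containing IL-2 (80 U/mL in cell suspension). Proliferation read as viable-cell ATP by CellTiter-Glo luminescence; reduction versus control taken as JAK pathway inhibition.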

In general, IC50 refers to the midpoint of a concentration-inhibition curve.

Where two headings read alike, the source gives them in different places.

In the case of `Cc1cnc(Nc2cccc(C=O)c2)nc1Nc1ccc2oc(=O)[nH]c2c1` [Compound I-1, N4-(benzo[d]oxazol-2(3H)-on-5-yl)-N2-(3-formylphenyl)-5-methylpyrimidine-2,4-diamine], the IC50 (Homo sapiens, T-cell) lay within 500 to 5000 nM.

For the compound `Cc1cnc(Nc2ccc(OC(F)(F)F)c(C(F)(F)F)c2)nc1Nc1ccc2oc(=O)[nH]c2c1` [Compound I-161, 5-[5-Methyl-2-(4-trifluoromethoxy-3-trifluoromethyl-phenylamino)-pyrimidin-4-ylamino]-3H-benzooxazol-2-one], the IC50 (Homo sapiens, T-cell) was less than 500 nM.

Turning to `Cc1cnc(Nc2cc(F)cc(F)c2F)nc1Nc1ccc2oc(=O)[nH]c2c1` [Compound I-480, 5-[5-Methyl-2-(2,3,5-trifluoro-phenylamino)-pyrimidin-4-ylamino]-3H-benzooxazol-2-one], the IC50 (Homo sapiens, T-cell) was more than 10000 nM.

Turning to `Cc1cnc(Nc2cnc(N3CC4CCC(C3)N4C)c(C)c2)nc1Nc1ccc2oc(=O)[nH]c2c1` [II-64, 5-(5-methyl-2-(5-methyl-6-(8-methyl-3,8-diaza-bicyclo[3.2.1]octan-3-yl)pyridin-3-ylamino)pyrimidin-4-ylamino)benzo[d]oxazol-2(3H)-one], the IC50 (Homo sapiens, T-cell) is less than 500 nM.

Turning to `Cc1cnc(Nc2ccc3c(c2)NC(=O)CC3)nc1Nc1ccc2oc(=O)[nH]c2c1` [IV-24, 5-(5-methyl-2-(2-oxo-1,2,3,4-tetrahydroquinolin-7-ylamino)pyrimidin-4-ylamino)benzo[d]oxazol-2(3H)-one], the IC50 (Homo sapiens, T-cell) was less than 500 nM.

As for `COc1cc(Nc2ncc(C)c(Nc3cc(C)c4oc(=O)[nH]c4c3)n2)cc(C)c1F` [Compound I-491, 5-(2-(4-fluoro-3-methoxy-5-methylphenylamino)-5-methylpyrimidin-4-ylamino)-7-methylbenzo[d]oxazol-2(3H)-one], the IC50 (Homo sapiens, T-cell) was less than 500 nM.

As to `Cc1cnc(Nc2ccc(C(C)NC3CC3)cc2)nc1Nc1ccc2oc(=O)[nH]c2c1` (centres unmarked) [Compound I-202, 5-(2-(4-(1-(cyclopropylamino)ethyl)phenylamino)-5-methylpyrimidin-4-ylamino)benzo[d]oxazol-2(3H)-one], where the note is “Homo sapiens, T-cell”, the half-inhibitory concentration (IC50) was less than 500 nM.

As for `Cc1cnc(Nc2cccc(S(C)(=O)=O)c2)nc1Nc1ccc2oc(=O)n(C)c2c1` [Compound I-69, N2-((3-methylsulfonyl)phenyl)-N4-(3-methyl-2-oxo-2,3-dihydrobenzo[d]oxazol-5-yl)-5-methylpyrimidine-2,4-diamine], the IC50 is less than 500 nM.

The values are drawn from patent publication US10005767B2, “Compositions and methods for inhibition of the JAK pathway” (Rigel Pharmaceuticals, Inc., priority 2009, dated 2018).
